Measured values from patent US7250399B2, “Compounds having growth hormone releasing activity” (The Administrators of the Tulane Educational Fund, priority 1998, dated 2007).
Several values for one entry are separate records, joined by “and”; a condition that tells them apart may be missing. Equal values may be shown once. Square brackets hold non-standard residues; d marks the D form. Ends that are not written are not given here. d2Nal = N[C@H](Cc1ccc2ccccc2c1)C(=O)O

Experiments:
Growth Hormone release [1] = assay: In Vivo GH Release in Rats (i.v., serum GH by RIA); set-up: species or system Sprague-Dawley rats; conditions: for In Vivo Release of Growth Hormone in Rat, GH: i.v., serum 10 min after injection
Protocol: Immature female Sprague-Dawley rats were obtained from the Charles River Laboratories (Wilmington, Mass.). After arrival they were housed at 25° C. with a 14:10 hour light:dark cycle. Water and Purina rat chow were available ad libitum. Pups were kept with their mothers until 21 days of age.
Twenty-six day old rats, six rats per treatment group, were anesthetized interperitoneally with 50 mg/kg of pentobarbital 20 minutes prior to i.v. treatment with peptide. Normal saline with 0.1% gelatin was the vehicle for intravenous (i.v.) injections of the peptides. The anesthetized rats, weighing 55-65 grams, were injected i.v. with the quantity of grown hormone releasing compounds indicated in Table 3. Injection was made as a 0.1 mL solution into the jugular vein.
All animals were sacrificed by guillotine 10 minutes after final test injection (see Table 3). Trunk blood for the determination of blood GH levels was collected following decapitation. After allowing the blood to clot, it was centrifuged and the serum was separated from the clot. Serum was kept frozen until the day of sampling for radioimmunoassay (RIA) determination of growth hormone levels according to the following procedure, as developed by the National Institute of Arthritis, Diabetes and Digestive and Kidney Diseases (NIADDK).
Reagents are generally added to the RIA analysis tubes at a single sitting, at refrigerator temperature (about 4° C.) in the following sequence: • (a) buffer, • (b) “cold” (i.e., non-radioactive) standard or unknown serum sample to be analyzed, • (c) radio-iodinated growth hormone antigen, and • (d) growth hormone antiserum.
Reagent addition is generally carried out so that there is achieved a final RIA tube dilution of about 1:30,000 (antiserum to total liquid volume; vol:vol).
The mixed reagents are then typically incubated at room temperature (about 25° C.) for about 24 hours prior to addition of a second antibody (e.g., goat or rabbit anti-monkey gamma globulin serum) which binds to and causes precipitation of the complexed growth hormone antiserum. Precipitated contents of the RIA tubes are then analyzed for the number of counts in a specified period of time in a gamma scintillation counter. A standard curve is prepared by plotting number of radioactive counts versus growth hormone (GH) level. GH levels of unknown are then determined by reference to the standard curve.
Serum GH was measured by RIA with reagents provided by the National Hormone and Pituitary Program.
Serum levels in Tables 3 and 4 are recorded in ng/mL in terms of the rat GH standard of 0.61 International Units/mg (IU/mg). Data is recorded as the mean ±standard error of the mean (SEM). Statistical analysis was performed with Student's t-test. In Table 3, the results shown are the average of studies with six rats.

Growth Hormone release [2] = assay: In Vitro Release of Growth Hormone in Rat; type: cell-based
Protocol: (§1) In vitro and in vivo activity of certain compounds were determined in rats and adult beagle dogs (in vivo activity only).

Growth Hormone release [3] = assay: In Vivo Release of Growth Hormone in Adult Beagle Dogs; set-up: unit not given here; conditions: oral dose 1 mg/kg, 1 mg/kg
Protocol: as §1

[4] = tested on: short-statured children with various degrees of GH deficiency; conditions: cited from earlier work

Substance | In Vivo Release of Growth Hormone in Rat, GH (Growth Hormone release [1]; compound at 3 (dose unit not given)) | In Vivo Release of Growth Hormone in Rat, GH (Growth Hormone release [1]; compound at 10 (dose unit not given)) | In Vivo Release of Growth Hormone in Rat, GH (Growth Hormone release [1]; compound at 30 (dose unit not given)) | In Vitro Release of Growth Hormone in Rat, GH (Growth Hormone release [2]; compound at .001 (dose unit not given)) | In Vitro Release of Growth Hormone in Rat, GH (Growth Hormone release [2]; compound at .003 (dose unit not given)) | In Vitro Release of Growth Hormone in Rat, GH (Growth Hormone release [2]; compound at .01 (dose unit not given)) | In Vitro Release of Growth Hormone in Rat, GH (Growth Hormone release [2]; compound at .03 (dose unit not given)) | In Vitro Release of Growth Hormone in Rat, GH (Growth Hormone release [2]; compound at .1 (dose unit not given)) | In Vitro Release of Growth Hormone in Rat, GH (Growth Hormone release [2]; compound at .3 (dose unit not given)) | In Vivo Release of Growth Hormone in Adult Beagle Dogs (Growth Hormone release [3]; time 0.5 hr) | In Vivo Release of Growth Hormone in Adult Beagle Dogs (Growth Hormone release [3]; time 1 hr) | In Vivo Release of Growth Hormone in Adult Beagle Dogs (Growth Hormone release [3]; time 2 hr) | In Vivo Release of Growth Hormone in Adult Beagle Dogs (Growth Hormone release [3]; time 3 hr) | In Vivo Release of Growth Hormone in Adult Beagle Dogs (Growth Hormone release [3]; time 4 hr) | In Vivo Release of Growth Hormone in Adult Beagle Dogs (Growth Hormone release [3]; time 6 hr) | effect on height velocity compared with chronic recombinant human growth hormone (rhGH) administration ([4]; in vivo) | rate of height velocity ([4]; short-statured children, 2-3 times per day over a 2 year period) | GH ng/ml, GHRP-2 (.03) (Growth Hormone release [1]; rat, GHRP-2 reference standard, dose (.03) (dose unit not given))
N-2-hydroxylethyl-Aib-DTrp-DPro-diisobutylamide [R^1 = -N-2-OHethyl/DPro-diisobutylamide] | 156 ng/mL | 259 ng/mL | 451 ng/mL | 452 ng/mL | 326 ng/mL | 526 ng/mL | 820 ng/mL | 1163 ng/mL | 1217 ng/mL | 102 and 62 | 26 and 30 | 25 and 19 | 10 | 6.1 and 3.8 | 4.0 and 2.5 | – | – | –
[dA][d2Nal]AW[dF]K-NH2 [GHRP-2] | – | – | – | – | – | – | – | – | – | – | – | – | – | – | – | less effective | accelerated | 811 ng/mL
